Experimental findings from US20230382910A1, “HETEROARYL COMPOUNDS FOR THE TREATMENT OF PAIN” (VERTEX PHARMACEUTICALS INCORPORATED, priority 2022, published 2023) are described below.

Sequence of human NaV 1.8 (Q9Y5Y9 126-399 limits assumed): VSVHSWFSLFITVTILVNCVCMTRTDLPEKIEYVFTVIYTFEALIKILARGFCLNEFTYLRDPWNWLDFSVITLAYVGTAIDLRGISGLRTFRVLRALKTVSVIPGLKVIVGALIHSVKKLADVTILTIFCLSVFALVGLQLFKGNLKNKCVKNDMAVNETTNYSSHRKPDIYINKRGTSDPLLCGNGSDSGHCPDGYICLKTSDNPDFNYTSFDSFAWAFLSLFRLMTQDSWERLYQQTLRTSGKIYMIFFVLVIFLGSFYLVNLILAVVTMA
Sequence of human NaV 1.8 (Q9Y5Y9 660-890 limits assumed): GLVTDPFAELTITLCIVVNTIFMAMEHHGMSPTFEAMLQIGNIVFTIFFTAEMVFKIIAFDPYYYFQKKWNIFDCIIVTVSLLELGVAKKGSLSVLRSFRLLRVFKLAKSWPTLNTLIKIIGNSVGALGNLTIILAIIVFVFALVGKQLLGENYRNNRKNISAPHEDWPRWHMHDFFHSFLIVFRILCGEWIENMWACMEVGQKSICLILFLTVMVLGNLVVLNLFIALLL
Sequence of human NaV 1.8 (Q9Y5Y9 1148-1722 limits assumed): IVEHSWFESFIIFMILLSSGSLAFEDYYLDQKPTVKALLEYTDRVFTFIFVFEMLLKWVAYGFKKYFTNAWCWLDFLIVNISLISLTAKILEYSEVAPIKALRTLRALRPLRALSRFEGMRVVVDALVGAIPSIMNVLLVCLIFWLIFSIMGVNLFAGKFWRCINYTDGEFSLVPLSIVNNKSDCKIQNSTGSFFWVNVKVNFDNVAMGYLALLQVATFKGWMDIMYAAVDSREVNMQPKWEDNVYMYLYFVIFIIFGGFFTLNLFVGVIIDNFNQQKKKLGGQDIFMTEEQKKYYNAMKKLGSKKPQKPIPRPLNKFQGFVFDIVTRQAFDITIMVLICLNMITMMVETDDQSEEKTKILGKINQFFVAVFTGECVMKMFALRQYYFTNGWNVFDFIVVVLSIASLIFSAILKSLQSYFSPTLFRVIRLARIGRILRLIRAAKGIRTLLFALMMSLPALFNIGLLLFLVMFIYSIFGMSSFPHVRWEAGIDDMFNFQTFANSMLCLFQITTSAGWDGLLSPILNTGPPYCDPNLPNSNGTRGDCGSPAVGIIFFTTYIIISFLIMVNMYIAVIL

In this test the target is human NaV 1.8 (Homo sapiens, UniProt Q9Y5Y9). The test is described as follows: E-VIPR Assay Detecting and Measuring NaV Inhibition Properties. It is filed as cell-based. The note with it: HEK cells expressing a truncated form of human NaV 1.8; electrical stimulation, membrane potential FRET dyes; read-out: measured IC50 value in the E-VIPR Assay. The source says:
E-VIPR Assay Detecting and Measuring NaV Inhibition Properties
Sodium ion channels are voltage-dependent proteins that can be activated by inducing membrane voltage changes by applying electric fields. The electrical stimulation instrument and methods of use, referred to as E-VIPR, are described in International Publication No. WO 2002/008748 A3 and C.-J. Huang et al. Characterization of voltage-gated sodium channel blockers by electrical stimulation and fluorescence detection of membrane potential, 24 Nature Biotech. 439-46 (2006), both of which are incorporated by reference in their entirety. The instrument comprises a microtiter plate handler, an optical system for exciting the coumarin dye while simultaneously recording the coumarin and oxonol emissions, a waveform generator, a current- or voltage-controlled amplifier, and parallel electrode pairs that are inserted into assay plate wells. Under integrated computer control, this instrument passes user-programmed electrical stimulus protocols to cells within the wells of the microtiter plate.
16-20 hours prior to running the assay on E-VIPR, HEK cells expressing a truncated form of human NaV 1.8 with full channel activity were seeded into microtiter 384-well plates, pre-coated with matrigel, at a density of 25,000 cells per well. 2.5-5% KIR2.1 BacMam virus was added to the final cell suspension before seeding into cell plates. HEK cells were grown in Dulbecco's Modified Eagle's Medium (DMEM) supplemented with 10% FBS (Fetal Bovine Serum, qualified; Sigma #F4135), 1% NEAA (Non-Essential Amino Acids, Gibco #11140), 1% HEPES (Gibco #15630), 1% Pen-Strep (Penicillin-Streptomycin; Gibco #15140) and 5 μg/ml Blasticidin (Gibco #R210-01). Cells were expanded in 5-layer CellSTACK culture chambers or cell culture flasks with vented caps, with 90-95% humidity and 5% CO2.
Compound Loading Buffer (2× concentration): Na/TMA Cl Bath1 Buffer containing HS (omitted in experiments run in the absence of human serum (HS)) 50%, VABSC-1 1 mM, BSA 0.2 mg/ml (in Bath-1), KCl 9 mM, DMSO 0.625%.
Assay Protocol (7 Key Steps):
1) To reach the final concentration in each well, 375 nL of each compound was pre-spotted (in neat DMSO) into polypropylene compound plates at 240× desired final concentration from an intermediate stock concentration of 0.075 mM, in an 11-point dose response, 3-fold dilution, resulting in a top dose of 300 nM final concentration in the cell plate. Vehicle control (neat DMSO), and positive control (an established NaV1.8 inhibitor, 25 μM final in assay in DMSO) were added manually to the outermost columns of each plate respectively. The compound plate was backfilled with 45 μL per well of Compound Loading Buffer resulting in a 240-fold dilution of compound following a 1:1 transfer of compound into the cell plate (see Step 6). Final DMSO concentration for all wells in the assay was 0.625% (0.75% DMSO was supplemented to the Compound Loading Buffer for a final DMSO concentration of 0.625%). This assay dilution protocol was adjusted to enable a higher dose range to be tested in the presence of HS or if the final assay volume was altered.
2) Hexyl Dye Solution was prepared.
3) Cell plates were prepared. On the day of the assay, the media was aspirated, and the cells were washed three times with 80 μL of Bath-1 buffer, maintaining 25 μL residual volume in each well.
4) 25 μL per well of Hexyl Dye Solution was dispensed into the cell plates. The cells were incubated for 20 minutes at room temperature or ambient conditions in darkness.
5) 45 μL per well of Compound Loading Buffer was dispensed into compound plates.
6) The cell plates were washed three times with 80 μL per well of Bath-1 Buffer, leaving 25 µL of residual volume. Then 25 μL per well from compound plate was transferred to each cell plate. The mixture was incubated for 30 minutes at room temperature/ambient conditions. […]
Take `Cc1nc(C(C)(C)C(=O)O)c(Cl)cc1-c1cc(=O)c2c(C(N)=O)nccc2[nH]1` [Compound 359, 2-[5-(5-carbamoyl-4-oxo-1H-1,6-naphthyridin-2-yl)-3-chloro-6-methyl-2-pyridyl]-2-methyl-propanoic acid]: the IC50 was in the range of 2000 to 5000 nM.
As to `CCOC(=O)c1nc(C)c(-c2nccc3[nH]c(-c4cc(Cl)c(C(C)(C)C)cc4C)cc(=O)c23)o1` [Compound 390, ethyl 5-[2-(4-tert-butyl-5-chloro-2-methyl-phenyl)-4-oxo-1H-1,6-naphthyridin-5-yl]-4-methyl-oxazole-2-carboxylate], the IC50 is 500 to 2000 nM.
As to `Cn1nc(C(C)(C)C)cc1-c1cc(=O)c2cc(F)ccc2[nH]1` [Compound 417, 2-(5-tert-butyl-2-methyl-pyrazol-3-yl)-6-fluoro-1H-quinolin-4-one], the IC50 was in the range of 500 to 2000 nM.
Take `[2H]C([2H])([2H])C(c1cc(C)c(-c2cc(=O)c3c(C(N)=O)nccc3[nH]2)cc1Cl)(C([2H])([2H])[2H])C([2H])([2H])O` [Compound 427, 2-(5-chloro-4-(1-hydroxy-2-(methyl-d3)propan-2-yl-1,1,3,3,3-d5)-2-methylphenyl)-4-oxo-1,4-dihydro-1,6-naphthyridine-5-carboxamide]: the IC50 lay within 2000 to 5000 nM.

As usually defined, the IC50 is the midpoint of a concentration-inhibition curve.
